In ChEMBL document CHEMBL4828717, “Synthetic cajaninstilbene acid derivatives eradicate methicillin-resistant Staphylococcus aureus persisters and biofilms” (Eur J Med Chem, 2021):

What was measured:
[1] = system: Enterococcus faecalis; test: Antibacterial activity against Enterococcus faecalis ATCC29212 assessed as reduction in microbial growth after 16 to 18 hrs by microbroth dilution method; type: functional; details: ATCC 29212, time 16-18 hrs
[2] = system: Staphylococcus aureus; test: Antibacterial activity against methicillin resistant Staphylococcus aureus ATCC 43300 assessed as reduction in microbial growth after 16 to 18 hrs by microbroth dilution method; type: functional; details: time 16-18 hrs
[3] = system: Staphylococcus aureus; test: Antibacterial activity against methicillin resistant Staphylococcus aureus ATCC48966 assessed as reduction in microbial growth after 16 to 18 hrs by microbroth dilution method; type: functional; details: time 16-18 hrs
[4] = system: RAW264.7; test: Cytotoxicity against mouse RAW264.7 cells assessed as cell viability at 10 ug/ml measured after 24 hrs by MTT assay; type: cell-based; details: raw264.7, 24 h, dose 10 µg/ml
[5] = system: L02; test: Cytotoxicity against human L02 cells assessed as cell viability at 10 ug/ml measured after 24 hrs by MTT assay; type: cell-based; details: l02, 24 h, dose 10 µg/ml
[6] = system: Staphylococcus aureus; test: Antibacterial activity against methicillin resistant Staphylococcus aureus ATCC48073 assessed as reduction in microbial growth after 16 to 18 hrs by microbroth dilution method; type: functional; details: time 16-18 hrs
[7] = system: Staphylococcus aureus; test: Antibacterial activity against methicillin resistant Staphylococcus aureus ATCC513045 assessed as reduction in microbial growth after 16 to 18 hrs by microbroth dilution method; type: functional; details: time 16-18 hrs
[8] = system: Staphylococcus aureus; test: Antibacterial activity against methicillin resistant Staphylococcus aureus ATCC515992 assessed as reduction in microbial growth after 16 to 18 hrs by microbroth dilution method; type: functional; details: time 16-18 hrs
[9] = system: Staphylococcus aureus; test: Antibacterial activity against methicillin resistant Staphylococcus aureus ATCC49800 assessed as reduction in microbial growth after 16 to 18 hrs by microbroth dilution method; type: functional; details: time 16-18 hrs
[10] = system: Pseudomonas aeruginosa; test: Antibacterial activity against Pseudomonas aeruginosa ATCC27853 assessed as reduction in microbial growth after 16 to 18 hrs by microbroth dilution method; type: functional; details: time 16-18 hrs
[11] = system: Staphylococcus aureus; test: Antibacterial activity against methicillin resistant Staphylococcus aureus ATCC49008 assessed as reduction in microbial growth after 16 to 18 hrs by microbroth dilution method; type: functional; details: time 16-18 hrs
[12] = system: Staphylococcus aureus; test: Antibacterial activity against methicillin resistant Staphylococcus aureus ATCC49025 assessed as reduction in microbial growth after 16 to 18 hrs by microbroth dilution method; type: functional; details: time 16-18 hrs
[13] = system: Staphylococcus aureus; test: Antibacterial activity against methicillin resistant Staphylococcus aureus ATCC48706 assessed as reduction in microbial growth after 16 to 18 hrs by microbroth dilution method; type: functional; details: time 16-18 hrs
[14] = system: Staphylococcus aureus; test: Antibacterial activity against methicillin resistant Staphylococcus aureus ATCC 52056 assessed as reduction in microbial growth after 16 to 18 hrs by microbroth dilution method; type: functional; details: time 16-18 hrs
[15] = system: Escherichia coli; test: Antibacterial activity against Escherichia coli ATCC25922 assessed as reduction in microbial growth after 16 to 18 hrs by microbroth dilution method; type: functional; details: ATCC 25922, time 16-18 hrs
[16] = system: Staphylococcus aureus; test: Antibacterial activity against Staphylococcus aureus ATCC 25923 assessed as reduction in microbial growth after 16 to 18 hrs by microbroth dilution method; type: functional; details: time 16-18 hrs
[17] = system: Staphylococcus aureus; test: Antibacterial activity against methicillin resistant Staphylococcus aureus ATCC 62202 assessed as reduction in microbial growth after 16 to 18 hrs by microbroth dilution method; type: functional; details: time 16-18 hrs

CC(C)=CCc1c(OCc2ccccc2)cc(/C=C/c2ccc(C(F)(F)F)cc2)c(C(=O)O)c1O
MIC [1]: > 32 µg/mL | MIC [2]: 2 µg/mL | MIC [3]: 4 µg/mL | Activity [4]: Toxic | Activity [5]: Toxic | MIC [6]: 4 µg/mL | MIC [7]: 2 µg/mL | MIC [8]: 2 µg/mL | MIC [9]: 4 µg/mL | MIC [10]: > 32 µg/mL | MIC [11]: 4 µg/mL | MIC [12]: 4 µg/mL | MIC [13]: 4 µg/mL | MIC [14]: 2 µg/mL | MIC [15]: > 32 µg/mL | MIC [16]: 4 µg/mL | MIC [17]: 2 µg/mL

CC(C)=CCc1c(OCCCC(F)(F)F)cc(/C=C/c2ccc(C(F)(F)F)cc2)c(C(=O)O)c1O
MIC [1]: > 32 µg/mL | MIC [2]: 1 µg/mL | MIC [3]: 4 µg/mL | Activity [4]: Toxic | Activity [5]: Toxic | MIC [6]: 4 µg/mL | MIC [7]: 2 µg/mL | MIC [8]: 2 µg/mL | MIC [9]: 4 µg/mL | MIC [10]: > 32 µg/mL | MIC [11]: 4 µg/mL | MIC [12]: 4 µg/mL | MIC [13]: 4 µg/mL | MIC [14]: 2 µg/mL | MIC [15]: > 32 µg/mL | MIC [16]: 2 µg/mL | MIC [17]: 4 µg/mL

CCC(C)Oc1cc(/C=C/c2ccc(F)cc2)c(C(=O)O)c(O)c1CC=C(C)C (configuration not stated)
MIC [1]: > 32 µg/mL | MIC [2]: 2 µg/mL | MIC [3]: 4 µg/mL | Activity [4]: Toxic | Activity [5]: Toxic | MIC [6]: 4 µg/mL | MIC [7]: 2 µg/mL | MIC [8]: 4 µg/mL | MIC [9]: 4 µg/mL | MIC [10]: > 32 µg/mL | MIC [11]: 4 µg/mL | MIC [12]: 4 µg/mL | MIC [13]: 4 µg/mL | MIC [14]: 2 µg/mL | MIC [15]: > 32 µg/mL | MIC [16]: 2 µg/mL | MIC [17]: 2 µg/mL

CC(C)=CCc1c(OCCC(F)(F)F)cc(/C=C/c2ccc(C(F)(F)F)cc2)c(C(=O)O)c1O
MIC [1]: > 32 µg/mL | MIC [2]: 2 µg/mL | MIC [3]: 4 µg/mL | Activity [4]: Toxic | Activity [5]: Toxic | MIC [6]: 4 µg/mL | MIC [7]: 2 µg/mL | MIC [8]: 2 µg/mL | MIC [9]: 4 µg/mL | MIC [10]: > 32 µg/mL | MIC [11]: 4 µg/mL | MIC [12]: 4 µg/mL | MIC [13]: 4 µg/mL | MIC [14]: 2 µg/mL | MIC [15]: > 32 µg/mL | MIC [16]: 2 µg/mL | MIC [17]: 2 µg/mL

CC(C)=CCc1c(OC(C)C)cc(/C=C/c2ccc(C(F)(F)F)cc2)c(C(=O)O)c1O
MIC [1]: > 32 µg/mL | MIC [2]: 1 µg/mL | MIC [3]: 2 µg/mL | Activity [4]: Toxic | Activity [5]: Toxic | MIC [6]: 2 µg/mL | MIC [7]: 2 µg/mL | MIC [8]: 2 µg/mL | MIC [9]: 2 µg/mL | MIC [10]: > 32 µg/mL | MIC [11]: 2 µg/mL | MIC [12]: 2 µg/mL | MIC [13]: 2 µg/mL | MIC [14]: 2 µg/mL | MIC [15]: > 32 µg/mL | MIC [16]: 2 µg/mL | MIC [17]: 2 µg/mL

CC(C)=CCc1c(OCc2ccccc2)cc(/C=C/c2ccc(F)cc2)c(C(=O)O)c1O
MIC [1]: > 32 µg/mL | MIC [2]: 32 µg/mL | MIC [3]: 4 µg/mL | Activity [4]: Toxic | Activity [5]: Toxic | MIC [6]: 4 µg/mL | MIC [7]: 4 µg/mL | MIC [8]: 4 µg/mL | MIC [9]: 4 µg/mL | MIC [10]: > 32 µg/mL | MIC [11]: 4 µg/mL | MIC [12]: 4 µg/mL | MIC [13]: 4 µg/mL | MIC [14]: 4 µg/mL | MIC [15]: > 32 µg/mL | MIC [16]: 4 µg/mL | MIC [17]: 4 µg/mL

CCC(CC)Oc1cc(/C=C/c2ccc(C(F)(F)F)cc2)c(C(=O)O)c(O)c1CC=C(C)C
MIC [1]: > 32 µg/mL | MIC [2]: 2 µg/mL | MIC [3]: 2 µg/mL | Activity [4]: Toxic | Activity [5]: Toxic | MIC [6]: 2 µg/mL | MIC [7]: 1 µg/mL | MIC [8]: 2 µg/mL | MIC [9]: 2 µg/mL | MIC [10]: > 32 µg/mL | MIC [11]: 2 µg/mL | MIC [12]: 2 µg/mL | MIC [13]: 2 µg/mL | MIC [14]: 1 µg/mL | MIC [15]: > 32 µg/mL | MIC [16]: 1 µg/mL | MIC [17]: 1 µg/mL

CCC(CC)Oc1cc(/C=C/c2ccc(F)cc2)c(C(=O)O)c(O)c1CC=C(C)C
MIC [1]: > 32 µg/mL | MIC [2]: 2 µg/mL | MIC [3]: 2 µg/mL | Activity [4]: Toxic | Activity [5]: Toxic | MIC [6]: 4 µg/mL | MIC [7]: 2 µg/mL | MIC [8]: 4 µg/mL | MIC [9]: 2 µg/mL | MIC [10]: > 32 µg/mL | MIC [11]: 2 µg/mL | MIC [12]: 2 µg/mL | MIC [13]: 2 µg/mL | MIC [14]: 2 µg/mL | MIC [15]: > 32 µg/mL | MIC [16]: 2 µg/mL | MIC [17]: 2 µg/mL

CC(C)=CCc1c(OCC(F)F)cc(/C=C/c2ccc(F)cc2)c(C(=O)O)c1O
MIC [1]: > 32 µg/mL | MIC [2]: 4 µg/mL | MIC [3]: 4 µg/mL | Activity [4]: Toxic | Activity [5]: Toxic | MIC [6]: 4 µg/mL | MIC [7]: 4 µg/mL | MIC [8]: 4 µg/mL | MIC [9]: 4 µg/mL | MIC [10]: > 32 µg/mL | MIC [11]: 4 µg/mL | MIC [12]: 4 µg/mL | MIC [13]: 4 µg/mL | MIC [14]: 2 µg/mL | MIC [15]: > 32 µg/mL | MIC [16]: 4 µg/mL | MIC [17]: 4 µg/mL

CC(C)=CCc1c(OC2CCCCC2)cc(/C=C/c2ccc(F)cc2)c(C(=O)O)c1O
MIC [1]: > 32 µg/mL | MIC [2]: 2 µg/mL | MIC [3]: 4 µg/mL | Activity [4]: Toxic | Activity [5]: Toxic | MIC [6]: 4 µg/mL | MIC [7]: 2 µg/mL | MIC [8]: 4 µg/mL | MIC [9]: 4 µg/mL | MIC [10]: > 32 µg/mL | MIC [11]: 4 µg/mL | MIC [12]: 4 µg/mL | MIC [13]: 4 µg/mL | MIC [14]: 2 µg/mL | MIC [15]: > 32 µg/mL | MIC [16]: 2 µg/mL | MIC [17]: 2 µg/mL

CC(C)=CCc1c(OC2CCCCC2)cc(/C=C/c2ccc(C(F)(F)F)cc2)c(C(=O)O)c1O
MIC [1]: > 32 µg/mL | MIC [2]: 1 µg/mL | MIC [3]: 4 µg/mL | Activity [4]: Toxic | Activity [5]: Toxic | MIC [6]: 4 µg/mL | MIC [7]: 2 µg/mL | MIC [8]: 2 µg/mL | MIC [9]: 4 µg/mL | MIC [10]: > 32 µg/mL | MIC [11]: 4 µg/mL | MIC [12]: 4 µg/mL | MIC [13]: 4 µg/mL | MIC [14]: 2 µg/mL | MIC [15]: > 32 µg/mL | MIC [16]: 2 µg/mL | MIC [17]: 2 µg/mL
